Experimental data: ChEMBL document CHEMBL3430912, “GSK Tres Cantos Anti-Kinetoplastid Screening (TCAKS) Data”

How the values were obtained:
Leishmania donovani [1] = test: (§1) GSK_TCAKS: pIC50 Leishmania donovani Imaging: THP-1 Host Macrophages. Assay plates (384-well) were prepared by adding 250nL of compound to each well. For single shot assay, the final compound concentration was 5 uM. […] Automated image analysis was performed with a script developed on Acapella High Content Imaging and Analysis Software (PerkinElmer). Output: THP-1 cell count were reported for each well.; assay type: functional, organism-based, Homo sapiens
Leishmania donovani [2] = test: GSK_TCAKS: pIC50 Leishmania donovani viability assay using fluorescence intensity. Assay plates (1536-well) were prepared by adding 30nL per well of compound. For single shot assay, the final compound concentration was 5uM. […] Briefly, eGFP LdBOB axenic amastigotes were harvested, fixed and counted in a CASY cell counter (Roche-Applied Science). A final concentration of 1.5 * 10^5 cells per well were prepared in amastigote media containing 500 U/mL penicillin/streptomycin (Invitrogen) and 6uL was dispensed to each experimental well using a Multidrop Combi dispenser (Thermo Scientific). 6uL of assay media was dispensed to control columns used as reference for 100% compound response. Following incubation for 72 h at 37C, 5% CO2, 2 uL of resazurin was added to each well at a final concentration of 0.5 mM in phosphate buffered saline (PBS) with IGEPAL (Sigma-Aldrich), 0.05% (v/v).; assay type: functional, organism-based
[3] = GSK_TCAKS: pIC50 HepG2 human cell line viability assay using luminiscence. […] Seeding density was checked to ensure that new mono-layers were not more than 50% confluent at the time of harvesting. Cell suspension was added to 500 mL of the same medium at a final density of 1.2 * 10^5 cells/mL. This cell suspension was dispensed (25 uL, 3000 cells per well) into 384-well clear-bottom plates using a Multidrop Combi dispenser. Prior to addition of the cell suspension, the screening compounds (250 nL) were pre-dispensed into the plates with an Echo liquid handler. Plates were incubated for 48 h at 37C, 5% CO2. After incubation, plates equilibrated at room temperature for 30 min before proceeding to develop the luminescent signal. The signal developer, CellTiter-Glo Reagent, was allowed to equilibrate at room temperature for 30 min and added to the plates (25uL per well) using a Multidrop Combi dispenser. Plates were left for 10 min at room temperature for stabilization and then read using a ViewLux.; assay type: toxicity, cell-based
Trypanosoma cruzi [4] = test: (§2) GSK_TCAKS: pIC50 Trypanosoma cruzi Imaging: Infected Cells. […] Cells were then washed once with PBS before infection. T. cruzi trypomastigotes, collected at days 5 to 8 after infection from LLC-MK2 parasite infected cultures, were allowed to swim out for 4h at 37C from a centrifuged pellet (2,500 rpm/10 min/room temperature). Trypomastigotes were then collected and counted in a CASY Cell Counter. Trypomastigotes, in supplemented DMEM, were added to H9c2 cultures in a multiplicity of infection of 1 and incubated for 18 h. Cells were washed once with PBS before incubation of the infected H9c2 monolayer with trypsin (Life-Technologies) to detach cells from the flask. Cells were counted in a CASY Cell Counter using a 150 um capillary and their density set at 5 * 10^4 cells per mL in supplemented assay DMEM. Infected H9c2 were dispensed into 384-well poly-lysine coated assay plates at 50uL per well using a Multidrop Combi dispenser. After seeding them, the plates were incubated at 37C, 5% CO2 for 72h. Cultures were then fixed and stained by addition of 50 uL of a solution containing 8% formaldehyde and 4 uM DRAQ5 DNA dye (BioStatus, UK) per well. […] Five images were collected per well for reliable statistical analysis. Automated image analysis was performed with a script developed on Acapella High Content Imaging and Analysis Software (PerkinElmer). Output: percentage of infected cells per well as a second infection marker.; assay type: functional, organism-based, Rattus norvegicus; conditions: H9c2, 4 h
Trypanosoma cruzi [5] = test: GSK_TCAKS: pIC50 Trypanosoma cruzi viability assay using beta-GAL activity. This assay was run at single shot at 5uM compound concentration per well. The biological reagents consisted of NIH-3T3 host cells and trypomastigotes parasitic cells; both cell types were set to a 3.3 * 10^5 cells/mL dilution in assay DMEM by means of a CASY cell counter device using a 60um capillary. 6 uL of the mixture were dispensed per well (about 1 * 10^3 host-cells and 1 * 10^3 parasites) with a Multidrop Combi dispenser. […] In all wells, the percentage of DMSO never exceeded 0.5%. Plates incubated for four days at 37C, 5% CO2. The substrate used for the assay fluorescence intensity (FLINT) readout was resorufin-beta-D-galactopiranoside (Sigma-Aldrich) at 5uM per well. It was diluted in PBS supplemented with the soft detergent Igepal (Fluka).; assay type: functional, organism-based, Mus musculus; conditions: Tulahuen, NIH3T3
Trypanosoma cruzi [6] = test: GSK_TCAKS: pIC50 Trypanosoma cruzi Imaging: Amastigotes/Cell. […] Cells were then washed once with PBS before infection. T. cruzi trypomastigotes, collected at days 5 to 8 after infection from LLC-MK2 parasite infected cultures, were allowed to swim out for 4h at 37C from a centrifuged pellet (2,500 rpm/10 min/room temperature). Trypomastigotes were then collected and counted in a CASY Cell Counter. Trypomastigotes, in supplemented DMEM, were added to H9c2 cultures in a multiplicity of infection of 1 and incubated for 18 h. Cells were washed once with PBS before incubation of the infected H9c2 monolayer with trypsin (Life-Technologies) to detach cells from the flask. Cells were counted in a CASY Cell Counter using a 150 um capillary and their density set at 5 * 10^4 cells per mL in supplemented assay DMEM. Infected H9c2 were dispensed into 384-well poly-lysine coated assay plates at 50uL per well using a Multidrop Combi dispenser. After seeding them, the plates were incubated at 37C, 5% CO2 for 72h. Cultures were then fixed and stained by addition of 50 uL of a solution containing 8% formaldehyde and 4 uM DRAQ5 DNA dye (BioStatus, UK) per well. […] Five images were collected per well for reliable statistical analysis. Automated image analysis was performed with a script developed on Acapella High Content Imaging and Analysis Software (PerkinElmer). Output: number of amastigotes per cell as infection level measurement.; assay type: functional, organism-based, Rattus norvegicus; conditions: H9c2, 4 h
[7] = target: Sterol 14-alpha demethylase (Trypanosoma cruzi (strain CL Brener), UniProt Q7Z1V1); test: GSK_TCAKS: pIC50 CYP51 from Trypanosoma cruzi.; assay type: functional
Sterol 14-alpha demethylase, sequence (Q7Z1V1 whole entry): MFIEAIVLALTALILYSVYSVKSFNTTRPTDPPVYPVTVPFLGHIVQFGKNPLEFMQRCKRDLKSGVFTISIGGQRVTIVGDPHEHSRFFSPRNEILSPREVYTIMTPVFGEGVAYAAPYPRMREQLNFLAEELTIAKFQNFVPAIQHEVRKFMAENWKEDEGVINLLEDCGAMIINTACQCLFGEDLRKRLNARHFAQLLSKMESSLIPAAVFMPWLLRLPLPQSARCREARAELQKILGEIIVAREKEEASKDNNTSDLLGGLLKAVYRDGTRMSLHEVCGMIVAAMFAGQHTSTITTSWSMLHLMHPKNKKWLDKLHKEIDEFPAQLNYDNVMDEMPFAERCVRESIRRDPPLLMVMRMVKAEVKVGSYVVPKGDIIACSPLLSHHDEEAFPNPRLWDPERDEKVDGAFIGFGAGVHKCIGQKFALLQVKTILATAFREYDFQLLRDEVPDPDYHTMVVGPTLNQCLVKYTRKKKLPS

[8] = system: Trypanosoma brucei brucei; test: GSK_TCAKS: pIC50 Trypanosoma brucei viability assay using fluorescence intensity. Assay plates (1536-well) were prepared by dispensing 25nL of compound solution per well using an Echo acoustic dispenser (Labcyte).; assay type: functional, organism-based; conditions: Lister 427, 2 h
Leishmania donovani [9] = test: as §1, with “Amastigotes/Macrophages.” for “THP-1 Host Macrophages.”, “Average number of amastigotes per macrophage” for “THP-1”, “cell” for “cell count”; assay type: functional, organism-based, Homo sapiens; conditions: THP-1
Trypanosoma cruzi [10] = test: as §2, with “H2C9” for “Trypanosoma cruzi”, “H9c2 Host Cardiomyocytes.” for “Infected Cells.”, “Number” for “percentage”, “H9c2 Host Cardiomyocytes nuclei to determine drug-related cytotoxicity.” for “infected cells per well as a second infection marker.”; assay type: functional, organism-based, Rattus norvegicus; conditions: H9c2, 4 h
Leishmania donovani [11] = test: as §1, with “Infected” for “THP-1 Host”, “Percent of infected macrophage cells” for “THP-1 cell count”; assay type: functional, organism-based, Homo sapiens; conditions: THP-1
[12] = system: Trypanosoma brucei brucei; test: GSK_TCAKS: pIC50 Trypanosoma brucei viability assay using luminiscence. Assay plates (1536-well) were prepared. T. brucei cultures were harvested and counted in a CASY cell counter. A parasite suspension was prepared at a final concentration of 5 * 10^4 cells/mL in complete HMI9 medium and 6uL was dispensed to all wells containing compounds using a Multidrop Combi dispenser. 6uL of HMI9 media with 0.4% DMSO were dispensed to control columns. Plates were incubated for 24 h at 37C, 5% CO2 then tempered for 10 min at room temperature. ATP content was quantified by adding 4 uL of CellTiter-Glo Reagent (Promega) according to the manufacturer's instructions. Luminescence was measured using a ViewLux.; assay type: functional, organism-based; conditions: Lister 427, CASY

Row | SMILES | IC50 (Leishmania donovani [1]) | IC50 (Leishmania donovani [2]) | IC50 at 48 h [3] | IC50 (Trypanosoma cruzi [4]) | IC50 (Trypanosoma cruzi [5]) | IC50 (Trypanosoma cruzi [6]) | IC50 [7] | IC50 [8] | IC50 (Leishmania donovani [9]) | IC50 (Trypanosoma cruzi [10]) | IC50 (Leishmania donovani [11]) | IC50 [12]
1 | COc1ccc(C2=NCC(CSc3nnc(-c4ccc5c(c4)OCO5)o3)S2)cc1 (configuration not stated) | > 50.1 µM | 1 µM | > 100 µM | 0.501 µM | 2.51 µM | 0.316 µM | 10 µM | 10000 nM | 0.398 µM | > 50.1 µM | 1 µM | > 39800 nM
2 | O=C(CC1(O)C(=O)N(Cc2ccccc2)c2ccc(Br)cc21)c1cccnc1 (configuration not stated) | 39.8 µM | > 50.1 µM | 63.1 µM | 25.1 µM | 5.01 µM | 20 µM | 3.98 µM | 631 nM | 31.6 µM | 3.16 µM | > 50.1 µM | 794 nM
3 | O=C(Nc1ccc(-c2nc3ccccc3c(=O)[nH]2)cc1)c1cccs1 | > 50.1 µM | > 50.1 µM | > 100 µM | > 50.1 µM | 3.16 µM | > 50.1 µM | > 100 µM | 251 nM | > 50.1 µM | > 50.1 µM | > 50.1 µM | 1000 nM
4 | O=C(c1ccc(Cl)cc1)c1ccc(OC(=O)N2CCOCC2)cc1 | > 50.1 µM | 6.31 µM | > 100 µM | > 50.1 µM | 12.6 µM | 6.31 µM | 39.8 µM | 7940 nM | 2 µM | > 50.1 µM | 5.01 µM | > 39800 nM
5 | CCc1cccc(CC)c1-n1c(SCC(=O)NC(=O)NCc2ccco2)nnc1-c1cccnc1 | > 50.1 µM | > 50.1 µM | > 100 µM | 12.6 µM | 12.6 µM | 7.94 µM | 1 µM | 398 nM | > 50.1 µM | > 50.1 µM | > 50.1 µM | 794 nM
6 | C[C@@H](Oc1cc(-n2cnc3ccc(CC(O)CO)cc32)sc1C(N)=O)c1ccccc1Cl (some centres not stated) | 39.8 µM | 25.1 µM | > 100 µM | 50.1 µM | 3.16 µM | 12.6 µM | 25.1 µM | 631 nM | 31.6 µM | 0.126 µM | 39.8 µM | 794 nM
7 | O=C(c1ccccc1)N1CCC(C(=O)N2CCC(Oc3ccccc3Cl)CC2)CC1 | > 50.1 µM | > 50.1 µM | > 100 µM | 31.6 µM | 2 µM | 25.1 µM | 20 µM | 501 nM | 31.6 µM | > 50.1 µM | > 50.1 µM | 1000 nM
8 | CCCc1cc(N)nc(-c2cc(CCC)cc(N)n2)c1 | 20 µM | 20 µM | 31.6 µM | 0.631 µM | 2 µM | 0.501 µM | > 100 µM | 3160 nM | 1.58 µM | 0.2 µM | 2.51 µM | 7940 nM
9 | CCOc1cc(NCCCN2CCN(C)CC2)c2ncccc2c1 | 6.31 µM | 39.8 µM | 31.6 µM | 1.26 µM | 1.78 µM | 1 µM | > 100 µM | 12600 nM | 0.794 µM | 31.6 µM | 1.26 µM | 20000 nM
10 | Cc1cc(-c2cccc3ccccc23)nc2nc(N)nc(N)c12 | 50.1 µM | 2 µM | 50.1 µM | > 50.1 µM | 39.8 µM | 31.6 µM | > 100 µM | 31600 nM | 1 µM | > 50.1 µM | 5.01 µM | 20000 nM
11 | N#Cc1ccc(Br)cc1[N+](=O)[O-] | 25.1 µM | 7.94 µM | 20 µM | 0.794 µM | 0.251 µM | 0.0631 µM | 50.1 µM | 158 nM | 12.6 µM | 39.8 µM | 20 µM | 200 nM
